Results: ChEMBL document CHEMBL5034023, “Development of Multifunctional and Orally Active Cyclic Peptide Agonists of Opioid/Neuropeptide FF Receptors that Produce Potent, Long-Lasting, and Peripherally Restricted Antinociception with Diminished Side Effects” (J Med Chem, 2021)
Calls of active or inactive are those of the source. The rule behind the calls is not given here. Bridge positions count the residues as written; N and C are the ends. Square brackets hold non-standard residues; d marks the D form. Peptide text beside a SMILES is read from it. NMeF = CN[C@@H](Cc1ccccc1)C(=O)O

Test system: Mus musculus
Assay: Antinociceptive activity against Kunming mouse model of thermal-induced nociception assessed as prolongation of tail-flick latency period at 8.68 nmol/kg, po in presence of beta-FNA at 1 mg/kg, ip measured up to 240 mins by tail-flick test
Format: functional, organism-based
Conditions: time min <=240

CN1C(=O)CNC(=O)[C@H](NC(=O)[C@@H](N)Cc2ccc(O)cc2)CCCCNC(=O)C[C@@H](C(=O)N2CCC[C@H]2C(=O)N[C@@H](CCC(N)=O)C(=O)N[C@@H](CCCNC(=N)N)C(=O)N[C@@H](Cc2ccccc2)C(N)=O)NC(=O)[C@@H]1Cc1ccccc1 (H-Y[dK]G[NMeF]DPQRF-NH2; lactam 2-5)
Activity: inactive
